Reference: the NIST ThermoML archive (doi:10.1021/je700406p)

Assay: wn = mass fraction of the nth substance listed
Conditions: Liquid, Vibrating tube method

CC(C)(N)CO [2-amino-2-methylpropan-1-ol] + O
Conditions | mass density [kg/m3]
352.85 K, 12992 kPa, w1 = 0.2821 | 967.1
352.85 K, 13990 kPa, w1 = 0.2821 | 967.5
352.85 K, 14990 kPa, w1 = 0.2821 | 968
352.85 K, 15988 kPa, w1 = 0.2821 | 968.4
352.85 K, 16991 kPa, w1 = 0.2821 | 968.8
352.85 K, 17991 kPa, w1 = 0.2821 | 969.2
352.85 K, 18988 kPa, w1 = 0.2821 | 969.6
352.85 K, 19987 kPa, w1 = 0.2821 | 970.1
352.85 K, 20985 kPa, w1 = 0.2821 | 970.5
352.86 K, 500 kPa, w1 = 0.1997 | 965
352.86 K, 1000 kPa, w1 = 0.1997 | 965.2
352.86 K, 2000 kPa, w1 = 0.1997 | 965.7
352.86 K, 3000 kPa, w1 = 0.1997 | 966.2
352.86 K, 4000 kPa, w1 = 0.1997 | 966.5
352.86 K, 5000 kPa, w1 = 0.1997 | 966.9
352.86 K, 6000 kPa, w1 = 0.1997 | 967.3
352.86 K, 7000 kPa, w1 = 0.1997 | 967.8
352.86 K, 8000 kPa, w1 = 0.1997 | 968.2
352.86 K, 9009 kPa, w1 = 0.1997 | 968.6
352.86 K, 10002 kPa, w1 = 0.1997 | 969.1
352.86 K, 11001 kPa, w1 = 0.1997 | 969.5
352.86 K, 12000 kPa, w1 = 0.1997 | 970
352.86 K, 13000 kPa, w1 = 0.1997 | 970.4
352.86 K, 14000 kPa, w1 = 0.1997 | 970.8
352.86 K, 15003 kPa, w1 = 0.1997 | 971.2
352.86 K, 16001 kPa, w1 = 0.1997 | 971.6
352.86 K, 17001 kPa, w1 = 0.1997 | 972.1
352.86 K, 18002 kPa, w1 = 0.1997 | 972.5
352.86 K, 19001 kPa, w1 = 0.1997 | 972.9
352.86 K, 20029 kPa, w1 = 0.1997 | 973.3
352.86 K, 21004 kPa, w1 = 0.1997 | 973.8
352.86 K, 22004 kPa, w1 = 0.1997 | 974.1
352.86 K, 23000 kPa, w1 = 0.1997 | 974.5
352.86 K, 24004 kPa, w1 = 0.1997 | 975
352.87 K, 1039 kPa, w1 = 0.4976 | 945
352.87 K, 2018 kPa, w1 = 0.4976 | 945.5
352.87 K, 3005 kPa, w1 = 0.4976 | 946
352.87 K, 4018 kPa, w1 = 0.4976 | 946.5
352.87 K, 5000 kPa, w1 = 0.4976 | 946.9
352.87 K, 5997 kPa, w1 = 0.4976 | 947.4
352.87 K, 7007 kPa, w1 = 0.4976 | 947.9
352.87 K, 7999 kPa, w1 = 0.4976 | 948.4
352.87 K, 8994 kPa, w1 = 0.4976 | 948.9
352.87 K, 9996 kPa, w1 = 0.4976 | 949.4
352.87 K, 10996 kPa, w1 = 0.4976 | 949.8
352.87 K, 12002 kPa, w1 = 0.4976 | 950.3
352.87 K, 13000 kPa, w1 = 0.4976 | 950.8
352.87 K, 13993 kPa, w1 = 0.4976 | 951.2
352.87 K, 15004 kPa, w1 = 0.4976 | 951.7
352.87 K, 16002 kPa, w1 = 0.4976 | 952.2
352.87 K, 16989 kPa, w1 = 0.4976 | 952.6
352.87 K, 18011 kPa, w1 = 0.4976 | 953.1
352.87 K, 18989 kPa, w1 = 0.4976 | 953.5
352.87 K, 20010 kPa, w1 = 0.4976 | 954
352.87 K, 20989 kPa, w1 = 0.4976 | 954.4
362.73 K, 999 kPa, w1 = 0.2821 | 954.1
362.73 K, 1015 kPa, w1 = 0.4976 | 936.3
362.73 K, 1999 kPa, w1 = 0.2821 | 954.5
362.73 K, 2010 kPa, w1 = 0.4976 | 936.7
362.73 K, 2998 kPa, w1 = 0.2821 | 955.1
362.73 K, 3022 kPa, w1 = 0.4976 | 937.3
362.73 K, 3996 kPa, w1 = 0.2821 | 955.4
362.73 K, 3997 kPa, w1 = 0.4976 | 937.8
362.73 K, 4996 kPa, w1 = 0.2821 | 955.9
362.73 K, 5010 kPa, w1 = 0.4976 | 938.3
362.73 K, 5993 kPa, w1 = 0.2821 | 956.3
362.73 K, 6002 kPa, w1 = 0.4976 | 938.8
362.73 K, 6993 kPa, w1 = 0.2821 | 956.8
362.73 K, 6999 kPa, w1 = 0.4976 | 939.3
362.73 K, 7992 kPa, w1 = 0.4976 | 939.8
362.73 K, 8006 kPa, w1 = 0.2821 | 957.3
362.73 K, 8992 kPa, w1 = 0.2821 | 957.7
362.73 K, 8997 kPa, w1 = 0.4976 | 940.3
362.73 K, 9994 kPa, w1 = 0.2821 | 958.1
362.73 K, 10028 kPa, w1 = 0.4976 | 940.9
362.73 K, 10990 kPa, w1 = 0.4976 | 941.3
362.73 K, 10992 kPa, w1 = 0.2821 | 958.6
362.73 K, 11992 kPa, w1 = 0.2821 | 959.1
362.73 K, 11996 kPa, w1 = 0.4976 | 941.8
362.73 K, 12991 kPa, w1 = 0.2821 | 959.5
362.73 K, 13002 kPa, w1 = 0.4976 | 942.3
362.73 K, 13992 kPa, w1 = 0.2821 | 959.9
362.73 K, 13994 kPa, w1 = 0.4976 | 942.8
362.73 K, 14986 kPa, w1 = 0.4976 | 943.3
362.73 K, 14988 kPa, w1 = 0.2821 | 960.4
362.73 K, 15987 kPa, w1 = 0.2821 | 960.8
362.73 K, 15995 kPa, w1 = 0.4976 | 943.8
362.73 K, 16985 kPa, w1 = 0.4976 | 944.3
362.73 K, 16990 kPa, w1 = 0.2821 | 961.3
362.73 K, 18007 kPa, w1 = 0.4976 | 944.8
362.73 K, 18019 kPa, w1 = 0.2821 | 961.7
362.73 K, 18985 kPa, w1 = 0.2821 | 962.1
362.73 K, 18989 kPa, w1 = 0.4976 | 945.2
362.73 K, 19985 kPa, w1 = 0.2821 | 962.6
362.73 K, 19988 kPa, w1 = 0.4976 | 945.7
362.73 K, 21004 kPa, w1 = 0.4976 | 946.2
362.74 K, 532 kPa, w1 = 0.1997 | 957.9
362.74 K, 1001 kPa, w1 = 0.1997 | 958
362.74 K, 1014 kPa, w1 = 0.4002 | 946.1
362.74 K, 1992 kPa, w1 = 0.4002 | 946.6
362.74 K, 2000 kPa, w1 = 0.1997 | 958.5
362.74 K, 3000 kPa, w1 = 0.1997 | 959
362.74 K, 3010 kPa, w1 = 0.4002 | 947.1
362.74 K, 4000 kPa, w1 = 0.1997 | 959.4
362.74 K, 4009 kPa, w1 = 0.4002 | 947.5
362.74 K, 5000 kPa, w1 = 0.1997 | 960.1
362.74 K, 5001 kPa, w1 = 0.4002 | 948
362.74 K, 6000 kPa, w1 = 0.1997 | 960.4
362.74 K, 6003 kPa, w1 = 0.4002 | 948.5
362.74 K, 6999 kPa, w1 = 0.4002 | 949
362.74 K, 7000 kPa, w1 = 0.1997 | 960.7
362.74 K, 7990 kPa, w1 = 0.4002 | 949.4
362.74 K, 8001 kPa, w1 = 0.1997 | 961.2
362.74 K, 8995 kPa, w1 = 0.4002 | 949.9
362.74 K, 9009 kPa, w1 = 0.1997 | 961.6
362.74 K, 10004 kPa, w1 = 0.1997 | 962.1
362.74 K, 10039 kPa, w1 = 0.4002 | 950.4
362.74 K, 10986 kPa, w1 = 0.4002 | 950.8
362.74 K, 11001 kPa, w1 = 0.1997 | 962.4
362.74 K, 11991 kPa, w1 = 0.4002 | 951.3
362.74 K, 12999 kPa, w1 = 0.4002 | 951.8
362.74 K, 13999 kPa, w1 = 0.4002 | 952.2
362.74 K, 14990 kPa, w1 = 0.4002 | 952.7
362.74 K, 15993 kPa, w1 = 0.4002 | 953.2
362.74 K, 16984 kPa, w1 = 0.4002 | 953.6
362.74 K, 18005 kPa, w1 = 0.4002 | 954.1
362.74 K, 18993 kPa, w1 = 0.4002 | 954.5
362.74 K, 19978 kPa, w1 = 0.4002 | 955
362.74 K, 21014 kPa, w1 = 0.4002 | 955.4
